According to patent US4104372A, “1-N-(α-hydroxy-ω-aminoalkanoyl) derivatives of 3'-deoxykanamycin A and the production thereof” (Zaidan Hojin Biseibutsu Kagaku Kenkyu Kai, priority 1975, dated 1978):
Converted amounts (≈) assume the structure as drawn.

Columns and labels:
[1] = test system: drug-resistant bacteria capable of producing the 3'-phosphotransferase; details: 3'-phosphotransferase producers; cited from earlier work
[2] = test system: various kanamycin-resistant bacteria and Pseudomonas aeruginosa (for example, Pseudomonas aeruginosa GN 315) capable of producing the 6'-acetyltransferase; details: 6'-acetyltransferase producers; cited from earlier work
[3] = test system: Escherichia coli K-12 LA 290 R55; assay: Minimum inhibitory concentration, agar dilution-streak method; format: cell-based; details: K12LA290R55, 18 h, read-out: Minimum Inhibitory Concentration
Method: (§1) The minimum inhibitory concentrations (mcg/ml) of the new compounds 1-N-((S)-γ-amino-α-hydroxybutyryl)-3'-deoxykanamycin A (abbreviated as S-AHB-DKA); 1-N-((SR)-β-amino-α-hydroxypropionyl)-3'-deoxykanamycin A (abbreviated as SR-AHP-DKA); 1-N-((S)-δ-amino-α-hydroxyvaleryl)-3'-deoxykanamycin A (abbreviated as S-AHV-DKA); and 1-N-((S)-γ-amino-α-hydroxybutyryl)-6'-N-methyl-3'-deoxykanamycin A (abbreviated as S-AHB-MDKA) against various organisms were determined according to agar dilution-streak method (nutrient agar) at 37° C, the estimation being made after 18 hours incubation. For the comparison purpose, the minimum inhibitory concentrations (mcg/ml) of the parent antibiotic 3'-deoxykanamycin A, as well as 1-N-((S)-γ-amino-α-hydroxybutyryl)kanamycin A (abbreviated as AHB-KMA) which is known from U.S. Pat. No. 3,781,268 were also determined in the same manner as stated above.

[4] = test system: Pseudomonas aeruginosa GN315; assay: as above; format: cell-based; details: P. aeruginosa GN315, nutrient agar, 37° C, 18 hours
Method: as §1

[5] = test system: Escherichia coli K-12; assay: as above; format: cell-based; details: K12, E. coli K-12, nutrient agar, 37° C, 18 hours
Method: as §1

[6] = test system: Escherichia coli K-12 ML 1629; assay: as above; format: cell-based; details: K12ML1629, E. coli K-12 ML 1629, nutrient agar, 37° C, 18 hours
Method: as §1

[7] = test system: Escherichia coli K-12 ML 1630; assay: as above; format: cell-based; details: K12ML1630, E. coli K-12 ML 1630, nutrient agar, 37° C, 18 hours
Method: as §1

[8] = test system: Pseudomonas aeruginosa A3; assay: as above; format: cell-based; details: P. aeruginosa A3, nutrient agar, 37° C, 18 hours
Method: as §1

[9] = test system: Staphylococcus aureus FDA 209P; assay: as above; format: cell-based; details: FDA209P, S. aureus FDA 209P, nutrient agar, 37° C, 18 hours
Method: as §1

[10] = test system: Escherichia coli K-12 W677; assay: as above; format: cell-based; details: K12W677, E. coli K-12 W677, nutrient agar, 37° C, 18 hours
Method: as §1

[11] = test system: Pseudomonas aeruginosa No. 12; assay: as above; format: cell-based; details: P. aeruginosa No. 12, nutrient agar, 37° C, 18 hours
Method: as §1

[12] = test system: Escherichia coli K-12 JR66/W677; assay: as above; format: cell-based; details: K12JR66/W677, 18 h, read-out: Minimum Inhibitory Concentration
Method: as §1

[13] = test system: Escherichia coli K-12 ML 1410; assay: as above; format: cell-based; details: K12ML1410, E. coli K-12 ML 1410, nutrient agar, 37° C, 18 hours
Method: as §1

[14] = test system: kanamycin-resistant bacteria and ribostamycin-resistant bacteria; details: cited from earlier work

| SMILES | effectiveness against drug-resistant bacteria [1] | activity against resistant bacteria [2] | MIC [3] [µg/mL] | MIC [4] [µg/mL] | MIC [5] [µg/mL] | MIC [6] [µg/mL] | MIC [7] [µg/mL] | MIC [8] [µg/mL] | MIC [9] [µg/mL] | MIC [10] [µg/mL] | MIC [11] [µg/mL] | MIC [12] [µg/mL] | MIC [13] [µg/mL] | activity against resistant bacteria [14] |
| --- | --- | --- | --- | --- | --- | --- | --- | --- | --- | --- | --- | --- | --- | --- |
| NC[C@@H]1CC[C@@H](N)[C@@H](O[C@H]2[C@H](O)[C@@H](O[C@H]3O[C@H](CO)[C@@H](O)[C@H](N)[C@H]3O)[C@H](N)C[C@@H]2N)O1 [3',4'-dideoxykanamycin B] | practically effective against the drug-resistant bacteria | – | – | – | – | – | – | – | – | – | – | – | – | – |
| NC[C@@H]1CC[C@@H](N)[C@@H](O[C@H]2[C@H](O[C@@H]3O[C@H](CO)[C@@H](O)[C@H]3O)[C@@H](O)[C@H](N)C[C@@H]2N)O1 [3',4'-dideoxyribostamycin] | practically effective against the drug-resistant bacteria | – | – | – | – | – | – | – | – | – | – | – | – | – |
| CNC[C@@H]1CC[C@@H](N)[C@@H](O[C@H]2[C@H](O)[C@@H](O[C@H]3O[C@H](CO)[C@@H](O)[C@H](N)[C@H]3O)[C@H](N)C[C@@H]2N)O1 [6'-N-methyl-3',4'-dideoxykanamycin B] | – | active against various kanamycin-resistant bacteria and Pseudomonas aeruginosa | – | – | – | – | – | – | – | – | – | – | – | – |
| CNC[C@H]1O[C@H](O[C@H]2[C@H](O)[C@@H](O[C@H]3O[C@H](CO)[C@@H](O)[C@H](N)[C@H]3O)[C@H](N)C[C@@H]2N)[C@H](N)C[C@@H]1O [6'-N-methyl-3'-deoxykanamycin B] | – | active against various kanamycin-resistant bacteria and Pseudomonas aeruginosa | – | – | – | – | – | – | – | – | – | – | – | – |
| NCC[C@H](O)C(=O)N[C@@H]1C[C@H](N)[C@@H](O[C@H]2O[C@H](CN)[C@@H](O)[C@H](O)[C@H]2O)[C@H](O)[C@H]1O[C@H]1O[C@H](CO)[C@@H](O)[C@H](N)[C@H]1O [AHB-KMA, 1-N-((S)-γ-amino-α-hydroxybutyryl)kanamycin A, reference compound] | – | – | 0.78 (≈ 1.33 µM) | 100 (≈ 171 µM) | 0.78 (≈ 1.33 µM) | 0.78 (≈ 1.33 µM) | 1.56 (≈ 2.66 µM) | 3.12 (≈ 5.33 µM) | 0.78 (≈ 1.33 µM) | 0.78 (≈ 1.33 µM) | 6.25 (≈ 10.7 µM) | 3.12 (≈ 5.33 µM) | 0.78 (≈ 1.33 µM) | – |
| NC[C@H]1O[C@H](O[C@H]2[C@H](O)[C@@H](O[C@H]3O[C@H](CO)[C@@H](O)[C@H](N)[C@H]3O)[C@H](N)C[C@@H]2N)[C@H](O)C[C@@H]1O [DKA, 3'-deoxykanamycin A] | practically effective against the drug-resistant bacteria | – | 3.12 (≈ 6.66 µM) | > 100 | 3.12 (≈ 6.66 µM) | 3.12 (≈ 6.66 µM) | 3.12 (≈ 6.66 µM) | 3.12 (≈ 6.66 µM) | 1.56 (≈ 3.33 µM) | 3.12 (≈ 6.66 µM) | 12.5 (≈ 26.7 µM) | > 100 | 3.12 (≈ 6.66 µM) | – |
| NCC[C@H](O)C(=O)N[C@@H]1C[C@H](N)[C@@H](O[C@H]2O[C@H](CN)[C@@H](O)C[C@H]2O)[C@H](O)[C@H]1O[C@H]1O[C@H](CO)[C@@H](O)[C@H](N)[C@H]1O [S-AHB-DKA, 1-N-((S)-γ-amino-α-hydroxybutyryl)-3'-deoxykanamycin A] | – | – | 0.78 (≈ 1.37 µM) | 100 (≈ 176 µM) | 0.39 (≈ 0.685 µM) | 0.39 (≈ 0.685 µM) | 0.78 (≈ 1.37 µM) | 3.12 (≈ 5.48 µM) | 0.39 (≈ 0.685 µM) | < 0.2 | 3.12 (≈ 5.48 µM) | 0.78 (≈ 1.37 µM) | 0.39 (≈ 0.685 µM) | – |
| CNC[C@H]1O[C@H](O[C@H]2[C@H](O)[C@@H](O[C@H]3O[C@H](CO)[C@@H](O)[C@H](N)[C@H]3O)[C@H](NC(=O)[C@@H](O)CCN)C[C@@H]2N)[C@H](O)C[C@@H]1O [S-AHB-MDKA, 1-N-((S)-γ-amino-α-hydroxybutyryl)-6'-N-methyl-3'-deoxykanamycin A] | – | – | 1.56 (≈ 2.67 µM) | 6.25 (≈ 10.7 µM) | 0.39 (≈ 0.668 µM) | 1.56 (≈ 2.67 µM) | 0.78 (≈ 1.34 µM) | 3.12 (≈ 5.35 µM) | 0.78 (≈ 1.34 µM) | 3.12 (≈ 5.35 µM) | 3.12 (≈ 5.35 µM) | 1.56 (≈ 2.67 µM) | 0.78 (≈ 1.34 µM) | – |
| NCCC[C@H](O)C(=O)N[C@@H]1C[C@H](N)[C@@H](O[C@H]2O[C@H](CN)[C@@H](O)C[C@H]2O)[C@H](O)[C@H]1O[C@H]1O[C@H](CO)[C@@H](O)[C@H](N)[C@H]1O [S-AHV-DKA, 1-N-((S)-δ-amino-α-hydroxyvaleryl)-3'-deoxykanamycin A] | – | – | 3.12 (≈ 5.35 µM) | > 100 | 0.78 (≈ 1.34 µM) | 1.56 (≈ 2.67 µM) | 1.56 (≈ 2.67 µM) | 3.12 (≈ 5.35 µM) | 0.78 (≈ 1.34 µM) | 3.12 (≈ 5.35 µM) | 6.25 (≈ 10.7 µM) | 3.12 (≈ 5.35 µM) | 3.12 (≈ 5.35 µM) | – |
| NCC(O)C(=O)N[C@@H]1C[C@H](N)[C@@H](O[C@H]2O[C@H](CN)[C@@H](O)C[C@H]2O)[C@H](O)[C@H]1O[C@H]1O[C@H](CO)[C@@H](O)[C@H](N)[C@H]1O (stereo partly drawn) [SR-AHP-DKA, 1-N-((SR)-β-amino-α-hydroxypropionyl)-3'-deoxykanamycin A] | – | – | 1.56 (≈ 2.81 µM) | > 100 | 0.39 (≈ 0.702 µM) | 0.78 (≈ 1.4 µM) | 0.78 (≈ 1.4 µM) | 3.12 (≈ 5.62 µM) | 0.78 (≈ 1.4 µM) | 0.78 (≈ 1.4 µM) | 6.25 (≈ 11.2 µM) | 1.56 (≈ 2.81 µM) | 0.78 (≈ 1.4 µM) | – |
| NCC[C@H](O)C(=O)N[C@@H]1C[C@H](N)[C@@H](O[C@H]2O[C@H](CN)[C@@H](O)[C@H](O)[C@H]2N)[C@H](O[C@@H]2O[C@H](CO)[C@@H](O)[C@H]2O)[C@H]1O [butirosin B, 1-N-((S)-α-hydroxy-γ-amino-n-butyryl)-5-O-β-D-ribofuranosylneamine] | – | – | – | – | – | – | – | – | – | – | – | – | – | active against some kanamycin-resistant bacteria and some ribostamycin-resistant bacteria |
